The NIST ThermoML archive (doi:10.1016/j.jct.2011.02.018)
± gives the expanded uncertainty stated by the source.

Assay: xn = mol fraction of the nth substance listed
Conditions: 101 kPa, Liquid; for viscosity: Concentric cylinders viscometry; for mass density: Vibrating tube method

COC(C)(C)C [2-methoxy-2-methylpropane] + CC(C)O
Conditions | mass density, 293.15 K [kg/m3] | mass density, 298.15 K [kg/m3] | mass density, 303.15 K [kg/m3] | mass density, 308.15 K [kg/m3] | viscosity, 293.15 K [mPa·s] | viscosity, 298.15 K [mPa·s] | viscosity, 303.15 K [mPa·s] | viscosity, 308.15 K [mPa·s]
x1 = 0.0093 | 784.82 ± 0.23 | 780.63 ± 0.23 | 776.34 ± 0.23 | 771.97 ± 0.23 | 2.325 ± 0.095 | 1.988 ± 0.082 | 1.716 ± 0.07 | 1.488 ± 0.061
x1 = 0.0206 | 784.14 ± 0.23 | 779.92 ± 0.23 | 775.62 ± 0.23 | 771.24 ± 0.23 | 2.232 ± 0.091 | 1.919 ± 0.078 | 1.661 ± 0.068 | 1.444 ± 0.059
x1 = 0.0305 | 783.55 ± 0.23 | 779.33 ± 0.23 | 775.01 ± 0.23 | 770.65 ± 0.23 | 2.145 ± 0.088 | 1.853 ± 0.076 | 1.606 ± 0.066 | 1.399 ± 0.057
x1 = 0.0398 | 783 ± 0.23 | 778.77 ± 0.23 | 774.43 ± 0.23 | 770.06 ± 0.23 | 2.066 ± 0.085 | 1.773 ± 0.073 | 1.547 ± 0.063 | 1.35 ± 0.055
x1 = 0.0499 | 782.41 ± 0.23 | 778.17 ± 0.23 | 773.82 ± 0.23 | 769.37 ± 0.23 | 1.982 ± 0.082 | 1.719 ± 0.07 | 1.496 ± 0.061 | 1.307 ± 0.053
x1 = 0.0601 | 781.75 ± 0.23 | 777.51 ± 0.23 | 773.15 ± 0.23 | 768.84 ± 0.23 | 1.901 ± 0.078 | 1.653 ± 0.068 | 1.443 ± 0.059 | 1.264 ± 0.052
x1 = 0.0702 | 781.19 ± 0.23 | 776.93 ± 0.23 | 772.55 ± 0.23 | 768.22 ± 0.23 | 1.832 ± 0.075 | 1.595 ± 0.065 | 1.395 ± 0.057 | 1.226 ± 0.05
x1 = 0.0799 | 780.66 ± 0.23 | 776.38 ± 0.23 | 772 ± 0.23 | 767.62 ± 0.23 | 1.761 ± 0.072 | 1.538 ± 0.063 | 1.348 ± 0.055 | 1.186 ± 0.049
x1 = 0.0914 | 780.12 ± 0.23 | 775.85 ± 0.23 | 771.45 ± 0.23 | 766.96 ± 0.23 | 1.693 ± 0.069 | 1.479 ± 0.06 | 1.299 ± 0.053 | 1.145 ± 0.047
x1 = 0.1009 | 779.62 ± 0.23 | 775.32 ± 0.23 | 770.89 ± 0.23 | 766.39 ± 0.23 | 1.634 ± 0.067 | 1.432 ± 0.058 | 1.26 ± 0.051 | 1.112 ± 0.045
x1 = 0.1493 | 777.01 ± 0.23 | 772.62 ± 0.23 | 768.12 ± 0.23 | 763.55 ± 0.23 | 1.391 ± 0.057 | 1.235 ± 0.051 | 1.093 ± 0.045 | 0.9806 ± 0.04
x1 = 0.2014 | 774.27 ± 0.23 | 769.81 ± 0.23 | 765.24 ± 0.23 | 760.59 ± 0.23 | 1.193 ± 0.049 | 1.057 ± 0.043 | 0.9479 ± 0.039 | 0.8473 ± 0.035
x1 = 0.244 | 771.96 ± 0.23 | 767.45 ± 0.23 | 762.82 ± 0.23 | 758.12 ± 0.23 | 1.05 ± 0.043 | 0.9465 ± 0.039 | 0.8652 ± 0.035 | 0.7741 ± 0.032
x1 = 0.2863 | 769.95 ± 0.23 | 765.38 ± 0.23 | 760.69 ± 0.23 | 755.94 ± 0.24 | 0.9352 ± 0.038 | 0.8443 ± 0.035 | 0.7635 ± 0.031 | 0.6933 ± 0.029
x1 = 0.3081 | 768.87 ± 0.23 | 764.26 ± 0.23 | 759.55 ± 0.23 | 754.77 ± 0.24 | 0.885 ± 0.036 | 0.8004 ± 0.033 | 0.7251 ± 0.03 | 0.6588 ± 0.027
x1 = 0.351 | 766.72 ± 0.23 | 762.06 ± 0.23 | 757.3 ± 0.24 | 752.47 ± 0.24 | 0.8018 ± 0.033 | 0.729 ± 0.03 | 0.6639 ± 0.027 | 0.6054 ± 0.025
x1 = 0.3995 | 764.43 ± 0.23 | 759.73 ± 0.23 | 754.91 ± 0.24 | 750.02 ± 0.24 | 0.7225 ± 0.03 | 0.6613 ± 0.027 | 0.6057 ± 0.025 | 0.5521 ± 0.023
x1 = 0.4516 | 762.08 ± 0.23 | 757.31 ± 0.24 | 752.43 ± 0.24 | 747.48 ± 0.24 | 0.6544 ± 0.027 | 0.6008 ± 0.025 | 0.5514 ± 0.023 | 0.501 ± 0.021
x1 = 0.4999 | 759.97 ± 0.23 | 755.15 ± 0.24 | 750.22 ± 0.24 | 745.22 ± 0.24 | 0.6 ± 0.025 | 0.5578 ± 0.023 | 0.5139 ± 0.021 | 0.4673 ± 0.019
x1 = 0.5497 | 757.86 ± 0.24 | 752.98 ± 0.24 | 748.01 ± 0.24 | 742.97 ± 0.24 | 0.5545 ± 0.023 | 0.5128 ± 0.021 | 0.4738 ± 0.02 | 0.4345 ± 0.018
x1 = 0.5994 | 755.8 ± 0.24 | 750.88 ± 0.24 | 745.87 ± 0.24 | 740.79 ± 0.24 | 0.5151 ± 0.021 | 0.477 ± 0.02 | 0.4395 ± 0.018 | 0.4032 ± 0.017
x1 = 0.6493 | 753.77 ± 0.24 | 748.81 ± 0.24 | 743.75 ± 0.24 | 738.63 ± 0.24 | 0.4839 ± 0.02 | 0.4481 ± 0.019 | 0.4129 ± 0.017 | 0.3822 ± 0.016
x1 = 0.6993 | 751.8 ± 0.24 | 746.81 ± 0.24 | 741.69 ± 0.24 | 736.5 ± 0.24 | 0.4525 ± 0.019 | 0.4253 ± 0.018 | 0.3938 ± 0.017 | 0.3678 ± 0.015
x1 = 0.7499 | 749.84 ± 0.24 | 744.78 ± 0.24 | 739.62 ± 0.24 | 734.4 ± 0.24 | 0.4259 ± 0.018 | 0.398 ± 0.017 | 0.3695 ± 0.015 | 0.3487 ± 0.015
x1 = 0.8015 | 747.89 ± 0.24 | 742.8 ± 0.24 | 737.6 ± 0.24 | 732.34 ± 0.24 | 0.4066 ± 0.017 | 0.3819 ± 0.016 | 0.352 ± 0.015 | 0.3323 ± 0.014
x1 = 0.8509 | 746.05 ± 0.24 | 740.92 ± 0.24 | 735.7 ± 0.24 | 730.41 ± 0.24 | 0.3844 ± 0.016 | 0.3613 ± 0.015 | 0.3397 ± 0.014 | 0.3136 ± 0.013
x1 = 0.8997 | 744.25 ± 0.24 | 739.1 ± 0.24 | 733.84 ± 0.24 | 728.52 ± 0.24 | 0.3678 ± 0.015 | 0.3459 ± 0.015 | 0.3193 ± 0.013 | 0.303 ± 0.013
x1 = 0.9089 | 743.91 ± 0.24 | 738.76 ± 0.24 | 733.49 ± 0.24 | 728.17 ± 0.24 | 0.3718 ± 0.016 | 0.3448 ± 0.015 | 0.3254 ± 0.014 | 0.298 ± 0.013
x1 = 0.9191 | 743.54 ± 0.24 | 738.35 ± 0.24 | 733.11 ± 0.24 | 727.78 ± 0.24 | 0.3617 ± 0.015 | 0.3398 ± 0.014 | 0.3152 ± 0.013 | 0.2968 ± 0.013
x1 = 0.9294 | 743.17 ± 0.24 | 737.99 ± 0.24 | 732.74 ± 0.24 | 727.41 ± 0.24 | 0.3609 ± 0.015 | 0.3374 ± 0.014 | 0.3121 ± 0.013 | 0.2986 ± 0.013
x1 = 0.9401 | 742.78 ± 0.24 | 737.6 ± 0.24 | 732.34 ± 0.24 | 727.01 ± 0.24 | 0.3548 ± 0.015 | 0.3317 ± 0.014 | 0.307 ± 0.013 | 0.293 ± 0.013
x1 = 0.9512 | 742.37 ± 0.24 | 737.18 ± 0.24 | 731.91 ± 0.24 | 726.58 ± 0.24 | 0.355 ± 0.015 | 0.3361 ± 0.014 | 0.3045 ± 0.013 | 0.2959 ± 0.013
x1 = 0.9587 | 742.11 ± 0.24 | 736.92 ± 0.24 | 731.64 ± 0.24 | 726.3 ± 0.24 | 0.3558 ± 0.015 | 0.3309 ± 0.014 | 0.3021 ± 0.013 | 0.2906 ± 0.013
x1 = 0.97 | 741.7 ± 0.24 | 736.51 ± 0.24 | 731.24 ± 0.24 | 725.88 ± 0.24 | 0.3466 ± 0.015 | 0.3247 ± 0.014 | 0.302 ± 0.013 | 0.2819 ± 0.012
x1 = 0.9777 | 741.42 ± 0.24 | 736.23 ± 0.24 | 730.94 ± 0.24 | 725.59 ± 0.24 | 0.3447 ± 0.015 | 0.3228 ± 0.014 | 0.2983 ± 0.013 | 0.2804 ± 0.012
x1 = 0.9897 | 740.99 ± 0.24 | 735.8 ± 0.24 | 730.5 ± 0.24 | 725.16 ± 0.24 | 0.342 ± 0.014 | 0.3204 ± 0.014 | 0.2943 ± 0.013 | 0.283 ± 0.012
